Measurements reported in patent US8883833B2, “Substituted benzoazole PDE4 inhibitors for treating inflammatory, cardiovascular and CNS disorders” (Decode Genetics EHF, priority 2007, dated 2014).

Key:
Type in all cases: biochemical
h4D7 = h4D7 (Homo sapiens, UniProt Q08499); experiment: In-vitro assay for PDE4 enzymes, real-time enzyme-coupled spectrophotometric assay (Table 3)
Protocol: (§1) In-vitro assay for PDE4 enzymes. The in-vitro activity of PDE4 enzymes and the in-vitro potency of therapeutic agents described in the present invention was measured using a real-time, enzyme-coupled spectrophotometric assay. By using three different coupling enzymes, the product of the PDE4 reaction is coupled to the oxidation of the reduced form β-nicotinamide adenine dinucleotide (NADH), which dissipation can be monitored spectrophotmetrically at […]. Assay description. Buffer A containing 50 mM Tris, pH 8.0, 16 mM MgCl2 and 80 mM KCl is prepared and stored at room temperature. Buffer B containing 50 mM Tris, pH 8.0 is prepared and stored at toom temperature. Stock solutions of the following reagents are prepared in Buffer B and stored at −20° C.: Adenosine-5′-triphosphate (ATP), cyclic adenosine-5′-monophosphate (cAMP), phosphoenolpyruvate (PEP) and NADH. An assay mix is prepared by mixing Buffer A, […] (TCEP), ATP, PEP, NADH, myokinase (MK), pyruvate kinase (PK), lactate dehydroganese (LDH) and PDE4 to a final volume of 20 mL, which is enough for a single 96-well assay plate. Assay mix (180 μL) and test article (10 μL) in 1:1 DMSO/H2O mixture is pre-incubated at room temperature for 10 min. The enzymatic reaction is initiated by addition of cAMP (10 μL). Final concentration of all components in the assay (200 μL/well) are as follows: 10 mM MgCl2, 50 mM KCl, 5 mM TCEP, 2.5% DMSO, 0.4 mM NADH, 1 mM PEP, 0.04 mM ATP, 5 units MK, 1 unit PK, 1 unit LDH and appropriate amount of PDE4. Reaction progress curves are monitored in a plate reader capable of measuring light absorbance at 340 nm. A decrease in light absorbance at 340 nm is due to oxidation of NADH. Positive controls containing no test article and negative controls containing no test article and no cAMP are included on every assay plate. Reaction rates are determined from the slopes of the linear portions of the progress curves. All data is percent normalized with respect to controls and presented as percent inhibition.

h4B1 = h4B1 (Homo sapiens, UniProt Q07343); experiment: as above
Protocol: as §1

human PDE4B isozyme = human PDE4B isozyme (Homo sapiens, UniProt Q07343); experiment: IC50 for human PDE4B isozyme (Table 5); settings: read-out: IC50 for human PDE4B isozyme, hPDE4B
Protocol: as §1

human PDE4D isozyme = human PDE4D isozyme (Homo sapiens, UniProt Q08499); experiment: IC50 for human PDE4D isozyme (Table 4); settings: read-out: IC50 for human PDE4D isozyme, hPDE4D
Protocol: as §1

Chain of human PDE4D isozyme (Q08499 whole entry): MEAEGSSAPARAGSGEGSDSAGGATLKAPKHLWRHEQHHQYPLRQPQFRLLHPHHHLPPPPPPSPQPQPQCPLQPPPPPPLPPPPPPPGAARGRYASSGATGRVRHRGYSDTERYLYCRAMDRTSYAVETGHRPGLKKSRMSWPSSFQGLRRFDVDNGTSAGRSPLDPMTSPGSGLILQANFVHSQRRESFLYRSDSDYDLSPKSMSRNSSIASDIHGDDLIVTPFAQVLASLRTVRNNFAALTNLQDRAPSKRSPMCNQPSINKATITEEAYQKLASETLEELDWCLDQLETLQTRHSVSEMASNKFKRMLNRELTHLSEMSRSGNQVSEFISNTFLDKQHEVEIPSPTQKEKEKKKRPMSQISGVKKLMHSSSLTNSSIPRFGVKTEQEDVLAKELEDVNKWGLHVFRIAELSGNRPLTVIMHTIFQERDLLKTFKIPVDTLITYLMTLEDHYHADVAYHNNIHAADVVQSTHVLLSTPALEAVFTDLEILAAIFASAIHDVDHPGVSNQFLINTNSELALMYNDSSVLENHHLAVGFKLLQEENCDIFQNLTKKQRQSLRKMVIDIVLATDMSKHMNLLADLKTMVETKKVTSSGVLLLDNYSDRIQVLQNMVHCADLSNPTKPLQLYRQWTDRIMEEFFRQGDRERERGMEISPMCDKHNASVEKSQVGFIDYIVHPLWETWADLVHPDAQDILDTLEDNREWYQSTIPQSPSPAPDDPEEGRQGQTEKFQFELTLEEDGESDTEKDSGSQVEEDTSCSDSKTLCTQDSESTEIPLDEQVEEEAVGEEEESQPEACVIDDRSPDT
Chain of h4D7 (Q08499 1-748 isoform Q08499-11): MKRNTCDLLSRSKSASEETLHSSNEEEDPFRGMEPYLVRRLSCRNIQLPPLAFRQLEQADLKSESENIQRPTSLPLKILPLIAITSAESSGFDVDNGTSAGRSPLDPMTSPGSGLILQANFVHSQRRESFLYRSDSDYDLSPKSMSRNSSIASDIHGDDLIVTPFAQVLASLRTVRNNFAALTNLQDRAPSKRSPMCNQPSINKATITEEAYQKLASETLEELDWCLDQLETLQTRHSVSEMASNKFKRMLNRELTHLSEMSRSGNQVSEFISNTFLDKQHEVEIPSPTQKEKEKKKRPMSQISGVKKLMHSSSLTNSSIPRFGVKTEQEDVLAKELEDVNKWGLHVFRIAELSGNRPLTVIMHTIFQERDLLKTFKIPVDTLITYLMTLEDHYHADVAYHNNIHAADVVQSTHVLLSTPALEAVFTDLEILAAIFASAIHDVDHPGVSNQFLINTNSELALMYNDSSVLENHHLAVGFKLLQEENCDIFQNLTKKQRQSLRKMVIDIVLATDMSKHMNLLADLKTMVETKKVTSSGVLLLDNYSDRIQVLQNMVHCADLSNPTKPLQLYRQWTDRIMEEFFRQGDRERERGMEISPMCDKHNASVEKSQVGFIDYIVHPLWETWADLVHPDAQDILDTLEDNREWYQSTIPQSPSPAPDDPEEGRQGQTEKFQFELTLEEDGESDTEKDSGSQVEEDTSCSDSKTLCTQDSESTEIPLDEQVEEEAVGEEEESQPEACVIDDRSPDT
Chain of h4B1 (Q07343 whole entry): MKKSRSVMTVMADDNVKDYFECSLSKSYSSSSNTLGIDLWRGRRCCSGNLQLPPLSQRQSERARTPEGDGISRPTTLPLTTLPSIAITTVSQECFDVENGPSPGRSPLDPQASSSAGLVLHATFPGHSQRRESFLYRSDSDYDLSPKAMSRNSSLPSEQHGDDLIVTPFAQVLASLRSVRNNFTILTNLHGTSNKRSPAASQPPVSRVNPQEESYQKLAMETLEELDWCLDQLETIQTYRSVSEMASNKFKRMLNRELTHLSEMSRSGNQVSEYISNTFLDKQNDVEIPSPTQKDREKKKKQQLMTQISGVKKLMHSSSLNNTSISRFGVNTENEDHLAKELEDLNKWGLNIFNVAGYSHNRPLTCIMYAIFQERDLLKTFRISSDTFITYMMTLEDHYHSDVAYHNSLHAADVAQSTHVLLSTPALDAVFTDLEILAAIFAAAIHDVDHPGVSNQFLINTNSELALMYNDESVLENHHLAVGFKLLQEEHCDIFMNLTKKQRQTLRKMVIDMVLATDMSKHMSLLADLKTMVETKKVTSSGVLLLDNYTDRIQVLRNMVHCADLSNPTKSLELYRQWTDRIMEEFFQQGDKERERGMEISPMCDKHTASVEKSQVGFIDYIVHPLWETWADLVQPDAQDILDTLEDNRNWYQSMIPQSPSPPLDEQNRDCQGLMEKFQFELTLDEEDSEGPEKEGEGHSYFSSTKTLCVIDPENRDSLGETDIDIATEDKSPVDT
Chain of human PDE4B isozyme (Q07343 whole entry): as above

| Compound | IC50 (h4D7) | IC50 (h4B1) | IC50 (human PDE4B isozyme) | IC50 (human PDE4D isozyme) |
| --- | --- | --- | --- | --- |
| CCNC(=O)Nc1ccc(Cc2cc3sc(N)nc3c(-c3cccc(Cl)c3)c2F)cc1 [BA-29, 1-{4-[2-Amino-4-(3-chloro-phenyl)-5-fluoro-benzothiazol-6-ylmethyl]-phenyl}-3-ethyl-urea] | – | – | < 5 µM | < 5 µM |
| Nc1nc2c(-c3ccc4c(c3)OCO4)cc(C(O)c3ccc(F)cc3)cc2s1 (centres unmarked) [BA-05, (2-Amino-4-benzo[1,3]dioxol-5-yl-benzothiazol-6-yl)-(4-fluoro-phenyl)-methanol] | – | – | < 5 µM | < 5 µM |
| Nc1nc2c(-c3cccc(C(F)(F)F)c3)cc(Cc3ccc(F)cc3)cc2s1 [BA-07, 6-(4-Fluoro-benzyl)-4-(3-trifluoromethyl-phenyl)-benzothiazol-2-ylamine] | – | – | < 5 µM | < 5 µM |
| CCNC(=O)Nc1ccc(Cc2cc3scnc3c(-c3cccc(C#N)c3)c2F)cn1 [BA-53, 1-{5-[4-(3-cyano-phenyl)-5-fluoro-benzothiazol-6-ylmethyl]-pyridin-2-yl}-3-ethyl-urea] | – | – | < 5 µM | < 5 µM |
| Nc1ccc(Cc2cc3scnc3c(-c3cccc(Cl)c3)c2F)cc1 [BA-23, 4-[4-(3-chloro-phenyl)-5-fluoro-benzothiazol-6-ylmethyl]-phenylamine] | – | – | < 5 µM | < 5 µM |
| CCOC(=O)Nc1ccc(Cc2cc3scnc3c(-c3cccc(Cl)c3)c2F)cn1 [BA-40, {5-[4-(3-chloro-phenyl)-5-fluoro-benzothiazol-6-ylmethyl]-pyridin-2-yl}-carbamic acid ethyl ester] | – | – | < 5 µM | < 5 µM |
| Cn1nccc1C(O)c1cc(-c2ccc3c(c2)OCO3)c2nc(N)sc2c1 (centres unmarked) [BA-06, (2-Amino-4-benzo[1,3]dioxol-5-yl-benzothiazol-6-yl)-(2-methyl-2H-pyrazol-3-yl)-methanol] | – | – | < 5 µM | < 5 µM |
| Nc1nc2c(-c3cccc([N+](=O)[O-])c3)cc(Cc3ccc(F)cc3)cc2s1 [BA-01, 6-(4-fluorobenzyl)-4-(3-nitrophenyl)-benzothiazol-2-yl amine] | – | – | < 5 µM | < 5 µM |
| CC(=O)N1CCN(Cc2cc3scnc3c(-c3cccc(Cl)c3)c2F)CC1 [BA-44, 1-{4-[4-(3-Chloro-phenyl)-5-fluoro-benzothiazol-6-ylmethyl]-piperazin-1-yl}-ethanone] | – | – | 5 to 20 µM | < 5 µM |
| Nc1nc2c(-c3ccc4c(c3)OCO4)cc(Cn3cccn3)cc2s1 [BA-09, 4-Benzo[1,3]dioxol-5-yl-6-pyrazol-1-ylmethyl-benzothiazol-2-ylamine] | – | – | < 5 µM | < 5 µM |
| CS(=O)(=O)Nc1ccc(Cc2cc3sc(N)nc3c(-c3cccc(Cl)c3)c2F)cc1 [BA-19, N-{4-[2-amino-4-(3-chloro-phenyl)-5-fluoro-benzothiazol-6-ylmethyl]-phenyl}-methanesulfonamide] | – | – | 5 to 20 µM | < 5 µM |
| CCNC(=O)Nc1ccc(Cc2cc3scnc3c(-c3cccc(Cl)c3)c2F)cn1 [BA-33, 1-[5-[4-(3-chloro-phenyl)-5-fluoro-benzothiazol-6-ylmethyl]-pyridin-2-yl]-3-ethyl-urea] | – | – | < 5 µM | < 5 µM |
| Oc1cccc(Cc2cc3scnc3c(-c3cccc(Cl)c3)c2F)c1 [BA-39, 3-[4-(3-chloro-phenyl)-5-fluoro-benzothiazol-6-ylmethyl]-phenol] | – | – | < 5 µM | < 5 µM |
| Nc1ccc(Cc2cc(-c3cccc(Cl)c3)c3ncsc3c2)cc1 [BA-25, 4-[4-(3-Chloro-phenyl)-benzothiazol-6-ylmethyl]-phenylamine] | – | – | < 5 µM | < 5 µM |
| Fc1c(CN2CCNCC2)cc2scnc2c1-c1cccc(Cl)c1 [BA-48, 4-(3-Chloro-phenyl)-5-fluoro-6-piperazin-1-ylmethyl-benzothiazole] | – | – | 5 to 20 µM | < 5 µM |
| Cn1nccc1Cc1cc(-c2ccc3c(c2)OCO3)c2nc(N)sc2c1 [BA-08, 4-Benzo[1,3]dioxol-5-yl-6-(2-methyl-2H-pyrazol-3-ylmethyl)-benzothiazol-2-ylamine] | – | – | < 5 µM | < 5 µM |

Second part, the compound after the results:

| IC50 (h4D7) | IC50 (h4B1) | IC50 (human PDE4B isozyme) | IC50 (human PDE4D isozyme) | Compound |
| --- | --- | --- | --- | --- |
| < 1 µM | > 30 µM | – | – | CCOC(=O)Nc1ccc(Cc2cc3scnc3c(-c3cccc(Cl)c3)c2F)cn1 [Example 40, {5-[4-(3-chloro-phenyl)-5-fluoro-benzothiazol-6-ylmethyl]-pyridin-2-yl}-carbamic acid ethyl ester] |
| < 1 µM | 1 to 10 µM | – | – | Nc1nc2c(-c3cccc(C(F)(F)F)c3)cc(Cc3ccc(F)cc3)cc2s1 [Example 7, 6-(4-Fluoro-benzyl)-4-(3-trifluoromethyl-phenyl)-benzothiazol-2-ylamine] |
| < 1 µM | 1 to 10 µM | – | – | COc1ccc(Cc2cc3scnc3c(-c3cccc(Cl)c3)c2F)cn1 [Example 38, 4-(3-chloro-phenyl)-5-fluoro-6-(6-methoxy-pyridin-3-ylmethyl)-benzothiazole] |
| < 1 µM | 1 to 10 µM | – | – | Oc1cccc(Cc2cc3scnc3c(-c3cccc(Cl)c3)c2F)c1 [Example 39, 3-[4-(3-chloro-phenyl)-5-fluoro-benzothiazol-6-ylmethyl]-phenol] |
| < 1 µM | < 1 µM | – | – | Nc1ccc(Cc2cc3scnc3c(-c3cccc(Cl)c3)c2F)cc1 [Example 23, 4-[4-(3-chloro-phenyl)-5-fluoro-benzothiazol-6-ylmethyl]-phenylamine] |
| < 1 µM | 1 to 10 µM | – | – | Nc1nc2c(-c3cccc(Br)c3)cc(Cc3ccc(F)cc3)cc2s1 [Example 13, 4-(3-bromophenyl)-6-(4-fluorobenzyl)-1,3-benzothiazol-2-amine] |
| 1 to 10 µM | – | – | – | NC(=O)NC1CCN(Cc2cc3scnc3c(-c3cccc(Cl)c3)c2F)CC1 [Example 46, [1-[4-(3-Chloro-phenyl)-5-fluoro-benzothiazol-6-ylmethyl]-piperidin-4-yl]-urea] |
| < 1 µM | – | – | – | Nc1ccc(Cc2cc3sc(N)nc3c(-c3cccc(Cl)c3)c2F)cc1 [Example 16, 6-(4-amino-benzyl)-4-(3-chloro-phenyl)-5-fluoro-benzothiazol-2-ylamine] |
| – | – | < 5 µM | < 5 µM | CN(C)c1ccc(Cc2cc(-c3cccc(Cl)c3)c3ncsc3c2)cn1 [BA-58, {5-[4-(3-chloro-phenyl)-benzothiazol-6-ylmethyl]-pyridin-2-yl}-dimethyl-amine] |
| – | – | < 5 µM | < 5 µM | N#Cc1ccc(Cc2cc3scnc3c(-c3cccc(Cl)c3)c2F)cn1 [BA-60, 5-[4-(3-chloro-phenyl)-5-fluoro-benzothiazol-6-ylmethyl]-pyridine-2-carbonitrile] |
| – | – | < 5 µM | < 5 µM | NC(=O)[C@@H]1CCN1c1ccc(Cc2cc3scnc3c(-c3cccc(Cl)c3)c2F)cn1 [BA-74, (S)-1-{5-[4-(3-chloro-phenyl)-5-fluoro-benzothiazol-6-ylmethyl]-pyridin-2-yl}-azetidine-2-carboxylic acid amide] |
| – | – | < 5 µM | < 5 µM | CCNC(=O)Nc1ccc(Cc2cc(-c3cccc(Cl)c3)c3nc(C)sc3c2)cn1 [BA-67, 1-{5-[4-(3-chloro-phenyl)-2-methyl-benzothiazol-6-ylmethyl]-pyridin-2-yl}-3-ethyl-urea] |
| – | – | < 5 µM | < 5 µM | O=C1CCCN1Cc1cc2scnc2c(-c2cccc(Cl)c2)c1F [BA-54, 1-[4-(3-Chloro-phenyl)-5-fluoro-benzothiazol-6-ylmethyl]-pyrrolidin-2-one] |
| 1 to 10 µM | – | – | – | Nc1nc2c(-c3ccc4c(c3)OCO4)cc(C(O)c3ccc(F)cc3)cc2s1 (centres unmarked) [Example 5, (2-Amino-4-benzo[1,3]dioxol-5-yl-benzothiazol-6-yl)-(4-fluoro-phenyl)-methanol] |
| – | – | < 5 µM | < 5 µM | NC(=O)[C@H]1CCN1c1ccc(Cc2cc3scnc3c(-c3cccc(Cl)c3)c2F)cn1 [BA-75, (R)-1-{5-[4-(3-chloro-phenyl)-5-fluoro-benzothiazol-6-ylmethyl]-pyridin-2-yl}-azetidine-2-carboxylic acid amide] |
| – | – | < 5 µM | < 5 µM | Nc1ccc(Cc2cc3scnc3c(-c3cccc(Cl)c3)c2F)cn1 [BA-63, 5-[4-(3-chloro-phenyl)-5-fluoro-benzothiazol-6-ylmethyl]-pyridin-2-ylamine] |
| – | – | < 5 µM | < 5 µM | O=C1CN(Cc2cc3scnc3c(-c3cccc(Cl)c3)c2F)CCN1 [BA-71, 4-[4-(3-Chloro-phenyl)-5-fluoro-benzothiazol-6-ylmethyl]-piperazin-2-one] |
| – | – | < 5 µM | < 5 µM | Fc1c(Cc2ccc(N3CCC3)nc2)cc2scnc2c1-c1cccc(Cl)c1 [BA-61, 6-(6-azetidin-1-yl-pyridin-3-ylmethyl)-4-(3-chloro-phenyl)-5-fluoro-benzothiazole] |
